Test results: patent US11464802B2, “3-substituted piperidine compounds for Cbl-b inhibition, and use thereof” (Nurix Therapeutics, Inc., priority 2019, dated 2022)

How the values were obtained:
Cbl-b [1] = biological target: T1, Cbl-b (Homo sapiens (Human), UniProt Q13191); assay: Cbl-b displacement assay (Cbl-b inhibition assay), Biological Example 8; type: binding; conditions: 0.125 nM Cbl-b final concentration (Low); Table 8-1; read-out: Cbl-b IC50 (Low)
Description: (§1) Candidate compounds were evaluated for their ability to bind and inhibit Cbl-b, an E3 ubiquitin-protein ligase, as evidenced by their ability to displace a fluorophore-labeled probe bound to Cbl-b.
(§2) The ability of candidate compounds to displace a known inhibitor and thereby inhibit Cbl-b activity was measured by monitoring the interaction of Cbl-b with a fluorophore-labeled probe in the presence of the candidate compound. A truncated variant of Cbl-b (UniProt number Q13191) containing residues 36-427 and an Avitag at its N-terminus was co-expressed with BirA biotin ligase and purified using a standard protocol (see Dou et al., Nature Structural and Molecular Biology 8: 982-987, 2013; Avidity LLC).
(§3) Fluorescently-labeled inhibitor probe was synthesized and tagged with BODIPY FL. Cbl-b displacement assays were performed in a 384-well plate at room temperature in a 10 μl reaction volume by pre-incubating 0.5 nM Cbl-b or 0.125 nM Cbl-b (final concentration, indicated as “High” and “Low”, respectively) in an assay buffer containing 20 mM HEPES pH 7.5, 150 mM NaCl, 0.01% Triton X-100, 0.01% BSA and 0.5 mM TCEP in the presence of a candidate compound in 1% DMSO (final concentration) for 1 hour. After incubation in the presence of the candidate compound, the plate was incubated for an additional 1 hour in the presence of an approximate EC40 binding saturation consisting of 150 nM fluorescently-labeled inhibitor probe and 2 nM Streptavidin-Terbium (Cisbio) (final concentrations). Following the 1 hour incubation, the plates were read for TR-FRET signal at 520/620 nM using an Envision plate reader (Perkin Elmer).
(§4) The resulting data for the Cbl-b activity assays were analyzed using standard methods to determine the IC50 values for the tested compounds.

[2] = test system: primary human total T-cells; assay: Primary human total T-cell activation: IL-2 secretion, Biological Example 9; type: cell-based; conditions: 48 hours, fold change over baseline; for fold induction at 0.3 µM: inhibitor 0.3 μM; for fold induction at 0.3 µM / fold induction at 3 µM: Table 9-1; for fold induction at 1 µM: inhibitor 1 μM; for fold induction at 3 µM: inhibitor 3 μM
[3] = test system: primary human total T-cells; assay: Primary human total T-cell activation: CD25 surface staining, Biological Example 9; type: cell-based; conditions: 48 hours, fold change over baseline; for fold induction at 0.3 µM: inhibitor 0.3 μM; for fold induction at 0.3 µM / fold induction at 3 µM: Table 9-1; for fold induction at 1 µM: inhibitor 1 μM; for fold induction at 3 µM: inhibitor 3 μM
Cbl-b [4] = biological target: T1, Cbl-b; assay: Cbl-b displacement assay (Cbl-b inhibition assay), Biological Example 12; type: binding; conditions: 0.125 nM Cbl-b final concentration (Low); Table 12-1; read-out: Cbl-b IC50 (Low)
Description: as §1, §2, §3, §4

[5] = test system: primary human total T-cells; assay: Primary human total T-cell activation: IL-2 secretion, Biological Example 13; type: cell-based; conditions: 48 hours, fold change over baseline; for fold induction at 0.3 µM: inhibitor 0.3 μM; for fold induction at 0.3 µM / fold induction at 3 µM: Table 13-1; for fold induction at 1 µM: inhibitor 1 μM; for fold induction at 3 µM: inhibitor 3 μM
[6] = test system: primary human total T-cells; assay: Primary human total T-cell activation: CD25 surface staining, Biological Example 13; type: cell-based; conditions: 48 hours, fold change over baseline; for fold induction at 0.3 µM: inhibitor 0.3 μM; for fold induction at 0.3 µM / fold induction at 3 µM: Table 13-1; for fold induction at 1 µM: inhibitor 1 μM; for fold induction at 3 µM: inhibitor 3 μM
Cbl-b [7] = biological target: T1, Cbl-b; assay: Cbl-b displacement assay (Cbl-b inhibition assay), TR-FRET probe displacement, Biological Example 1; type: binding
Outline: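 N-terminally Avitagged, biotinylated truncated Cbl-b (0.5 nM "High" or 0.125 nM "Low", final) pre-incubated 1 h at room temperature with compound (1% DMSO) in HEPES pH 7.5 buffer. Then 150 nM BODIPY FL probe (~EC40) plus 2 nM streptavidin-terbium for 1 h; TR-FRET read at 520/620 nm.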

[8] = test system: primary human total T-cells; assay: Primary human total T-cell activation: IL-2 secretion, Biological Example 2; type: cell-based; conditions: 48 hours, fold change over baseline; for fold induction at 0.3 µM: inhibitor 0.3 μM; for fold induction at 1 µM: inhibitor 1 μM; for fold induction at 3 µM: inhibitor 3 μM
[9] = test system: primary human total T-cells; assay: Primary human total T-cell activation: CD25 surface staining, Biological Example 2; type: cell-based; conditions: 48 hours, fold change over baseline; for fold induction at 0.3 µM: inhibitor 0.3 μM; for fold induction at 1 µM: inhibitor 1 μM; for fold induction at 3 µM: inhibitor 3 μM
[10] = anti-CD3/anti-CD28 co-stimulation
[11] = anti-CD3/anti-CD28 co-stimulation, Table 9-1, read-out: IL-2 secretion CD3/CD28 1 μM
[12] = anti-CD3 alone, Table 9-1, read-out: IL-2 secretion CD3 1 μM
[13] = anti-CD3/anti-CD28 co-stimulation, Table 9-1, read-out: CD25 staining CD3/CD28 1 μM
[14] = anti-CD3 alone, Table 9-1, read-out: CD25 staining CD3 1 μM
[15] = anti-CD3/anti-CD28 co-stimulation, Table 13-1, read-out: IL-2 secretion CD3/CD28 1 μM
[16] = anti-CD3 alone, Table 13-1, read-out: IL-2 secretion CD3 1 μM
[17] = anti-CD3/anti-CD28 co-stimulation, Table 13-1, read-out: CD25 staining CD3/CD28 1 μM
[18] = anti-CD3 alone, Table 13-1, read-out: CD25 staining CD3 1 μM
[19] = 0.125 nM Cbl-b final concentration (Low), read-out: Cbl-b activity IC50 (Low)
[20] = Cbl-b concentration (High or Low) not given, read-out: IC50 values in the Cbl-b inhibition assay of Biological Example 1
[21] = anti-CD3/anti-CD28 co-stimulation, read-out: IL-2 secretion CD3/CD28 1 μM
[22] = anti-CD3 alone, read-out: IL-2 secretion CD3 1 μM
[23] = anti-CD3/anti-CD28 co-stimulation, read-out: CD25 staining CD3/CD28 1 μM
[24] = anti-CD3 alone, read-out: CD25 staining CD3 1 μM

T1 sequence (Q13191 36-427): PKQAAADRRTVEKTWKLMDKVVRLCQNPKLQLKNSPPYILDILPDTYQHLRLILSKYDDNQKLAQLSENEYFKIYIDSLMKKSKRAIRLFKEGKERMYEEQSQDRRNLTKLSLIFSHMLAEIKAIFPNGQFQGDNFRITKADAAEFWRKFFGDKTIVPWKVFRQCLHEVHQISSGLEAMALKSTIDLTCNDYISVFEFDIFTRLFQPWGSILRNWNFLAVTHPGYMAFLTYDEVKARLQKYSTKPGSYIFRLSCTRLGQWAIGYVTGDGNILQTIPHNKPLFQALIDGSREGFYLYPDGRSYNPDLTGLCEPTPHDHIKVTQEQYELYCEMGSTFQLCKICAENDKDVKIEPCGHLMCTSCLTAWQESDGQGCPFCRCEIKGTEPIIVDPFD

SMILES | IC50 (Cbl-b [1]) [nM] | fold induction at 0.3 µM [2, 10] | fold induction at 1 µM [2, 11] | fold induction at 1 µM [2, 12] | fold induction at 0.3 µM [3, 10] | fold induction at 1 µM [3, 13] | fold induction at 1 µM [3, 14] | IC50 (Cbl-b [4]) [nM] | fold induction at 0.3 µM [5, 10] | fold induction at 1 µM [5, 15] | fold induction at 1 µM [5, 16] | fold induction at 0.3 µM [6, 10] | fold induction at 1 µM [6, 17] | fold induction at 1 µM [6, 18] | also measured
C[C@@H](c1cc2c(c(C(F)(F)F)c1)CN(c1cccc(C3([C@@H](F)c4nncn4C)COC3)c1)C2=O)N1CCC2(CC2)C1 [Compound 60] | 1 to 5 | > 15 | > 15 | 0.34 to 0.66 | > 1.39 | > 1.39 | > 1.14 | 1 to 5 | > 15 | > 15 | 0.34 to 0.66 | > 1.39 | > 1.39 | > 1.14 | fold induction at 3 µM ([2]; anti-CD3 alone): 0.34 to 0.66; fold induction at 3 µM ([3]; anti-CD3 alone): > 1.14; fold induction at 3 µM ([5]; anti-CD3 alone): 0.34 to 0.66; fold induction at 3 µM ([6]; anti-CD3 alone): > 1.14
C[C@@H](c1cc2c(c(C(F)(F)F)c1)CN(c1cccc(C3(Cc4nncn4C)COC3)c1)C2=O)N1CCC(F)CC1 [Compound 61] | 1 to 5 | > 15 | > 15 | 0.34 to 0.66 | > 1.39 | > 1.39 | > 1.14 | 1 to 5 | > 15 | > 15 | 0.34 to 0.66 | > 1.39 | > 1.39 | > 1.14 | fold induction at 3 µM ([2]; anti-CD3 alone): 0.34 to 0.66; fold induction at 3 µM ([3]; anti-CD3 alone): > 1.14; fold induction at 3 µM ([5]; anti-CD3 alone): 0.34 to 0.66; fold induction at 3 µM ([6]; anti-CD3 alone): > 1.14
Cn1cnnc1C(F)(F)[C@](C)(F)c1cccc(N2Cc3c(cc(CN4CC[C@H](F)C4)cc3C(F)(F)F)C2=O)c1 [Compound 57] | > 5 | < 10 | 10 to 15 | < 0.33 | 1.25 to 1.39 | > 1.39 | > 1.14 | > 5 | < 10 | 11 to 15 | < 0.33 | 1.25 to 1.39 | > 1.39 | > 1.14 | 
C[C@@H]1[C@@H](c2nncn2C)[C@H]1c1cccc(N2Cc3c(cccc3C(F)(F)F)C2=O)c1 [Compound 54] | > 5 | < 10 | < 10 | < 0.33 | 1.25 to 1.39 | 1.25 to 1.39 | > 1.14 | > 5 | < 10 | < 10 | < 0.33 | 1.25 to 1.39 | 1.25 to 1.39 | > 1.14 | 
Cn1cnnc1C(F)(F)[C@](C)(F)c1cccc(N2Cc3c(cc(CN4CCC(F)(F)C4)cc3C(F)(F)F)C2=O)c1 [Compound 58] | > 5 | < 10 | < 10 | < 0.33 | < 1.24 | 1.25 to 1.39 | < 1.04 | > 5 | < 10 | < 10 | < 0.33 | < 1.24 | 1.25 to 1.39 | < 1.04 | 
C[C@@H]1CN(Cc2cc3c(c(C4CC4)n2)CN(c2cccc(C4(Cc5nncn5C)COC4)c2)C3=O)CCC1(F)F [Compound 34, (R)-4-Cyclopropyl-6-((4,4-difluoro-3-methylpiperidin-1-yl)methyl)-2-(3-(3-((4-methyl-4H-1,2,4-triazol-3-yl)methyl)oxetan-3-yl)phenyl)-2,3-dihydro-1H-pyrrolo[3,4-c]pyridin-1-one] | 1 to 5 |  |  |  |  |  |  | 1 to 5 |  |  |  |  |  |  | IC50 (Cbl-b [7]; [19]): 1 to 5 nM
Cn1cnnc1CC1(c2cccc(N3Cc4c(cc(CN5CCCC(CC#N)C5)cc4C(F)(F)F)C3=O)c2)COC1 (centres unmarked) [Compound 4, 2-(1-((2-(3-(3-((4-methyl-4H-1,2,4-triazol-3-yl)methyl)oxetan-3-yl)phenyl)-3-oxo-7-(trifluoromethyl)isoindolin-5-yl)methyl)piperidin-3-yl)acetonitrile] |  |  |  |  |  |  |  |  |  |  |  |  |  |  | IC50 (Cbl-b [7]; [19]): 1 to 5 nM; IC50 (Cbl-b [7]; [20]): 1 to 5 nM; fold induction at 0.3 µM [8, 10]: > 15; fold induction at 1 µM [8, 21]: > 15; fold induction at 1 µM [8, 22]: 0.34 to 0.66; fold induction at 3 µM ([8]; anti-CD3 alone): 0.34 to 0.66; fold induction at 0.3 µM [9, 10]: > 1.39; fold induction at 1 µM [9, 23]: > 1.39; fold induction at 1 µM [9, 24]: > 1.14; fold induction at 3 µM ([9]; anti-CD3 alone): > 1.14
C[C@@H]1CN(Cc2cc3c(c(C(F)(F)F)c2)CN(c2cc(C4(Cc5nncn5C)COC4)cc(NC4COC4)n2)C3=O)CCC1(F)F [Compound 29, (R)-6-((4,4-difluoro-3-methylpiperidin-1-yl)methyl)-2-(4-(3-((4-methyl-4H-1,2,4-triazol-3-yl)methyl)oxetan-3-yl)-6-(oxetan-3-ylamino)pyridin-2-yl)-4-(trifluoromethyl)isoindolin-1-one] |  |  |  |  |  |  |  |  |  |  |  |  |  |  | IC50 (Cbl-b [7]; 0.5 nM Cbl-b final concentration (High), read-out: Cbl-b activity IC50 (High)): 5.1 to 100 nM; IC50 (Cbl-b [7]; [20]): 5.1 to 100 nM; fold induction at 0.3 µM [8, 10]: 11 to 15; fold induction at 1 µM [8, 21]: 11 to 15; fold induction at 1 µM [8, 22]: 0.34 to 0.66; fold induction at 3 µM ([8]; anti-CD3 alone): 0.34 to 0.66; fold induction at 0.3 µM [9, 10]: < 1.24; fold induction at 1 µM [9, 23]: < 1.24; fold induction at 1 µM [9, 24]: < 1.04; fold induction at 3 µM ([9]; anti-CD3 alone): < 1.04
